Results published in ChEMBL document CHEMBL5113403, “Design, synthesis, and biological evaluation of novel pyrazolo [3,4-d]pyrimidine derivatives as potent PLK4 inhibitors for the treatment of TRIM37-amplified breast cancer” (Eur J Med Chem, 2022).

What was measured:
[1] = system: MCF7; assay: Antiproliferative activity against human MCF7 cells assessed as cell growth inhibition incubated for 5 days by MTT assay; type: functional, cell-based; conditions: MCF7, 120 h
[2] = target: T1, Serine/threonine-protein kinase PAK 4 (Homo sapiens, UniProt O96013); assay: Inhibition of PAK4 (unknown origin) incubated for 60 mins by time-resolved HTRF assay
[3] = system: BT-474; assay: Antiproliferative activity against human BT-474 cells assessed as cell growth inhibition incubated for 5 days by MTT assay; type: functional, cell-based; conditions: BT-474, 120 h
[4] = system: MDA-MB-231; assay: Antiproliferative activity against human MDA-MB-231 cells assessed as cell growth inhibition incubated for 5 days by MTT assay; type: functional, cell-based; conditions: MDA-MB-231, 120 h
[5] = target: T2, Serine/threonine-protein kinase PLK4 (Homo sapiens, UniProt O00444); assay: Inhibition of recombinant human PLK4 incubated for 60 mins by Lanthascreen Eu kinase binding assay
T2 sequence (O00444 whole entry): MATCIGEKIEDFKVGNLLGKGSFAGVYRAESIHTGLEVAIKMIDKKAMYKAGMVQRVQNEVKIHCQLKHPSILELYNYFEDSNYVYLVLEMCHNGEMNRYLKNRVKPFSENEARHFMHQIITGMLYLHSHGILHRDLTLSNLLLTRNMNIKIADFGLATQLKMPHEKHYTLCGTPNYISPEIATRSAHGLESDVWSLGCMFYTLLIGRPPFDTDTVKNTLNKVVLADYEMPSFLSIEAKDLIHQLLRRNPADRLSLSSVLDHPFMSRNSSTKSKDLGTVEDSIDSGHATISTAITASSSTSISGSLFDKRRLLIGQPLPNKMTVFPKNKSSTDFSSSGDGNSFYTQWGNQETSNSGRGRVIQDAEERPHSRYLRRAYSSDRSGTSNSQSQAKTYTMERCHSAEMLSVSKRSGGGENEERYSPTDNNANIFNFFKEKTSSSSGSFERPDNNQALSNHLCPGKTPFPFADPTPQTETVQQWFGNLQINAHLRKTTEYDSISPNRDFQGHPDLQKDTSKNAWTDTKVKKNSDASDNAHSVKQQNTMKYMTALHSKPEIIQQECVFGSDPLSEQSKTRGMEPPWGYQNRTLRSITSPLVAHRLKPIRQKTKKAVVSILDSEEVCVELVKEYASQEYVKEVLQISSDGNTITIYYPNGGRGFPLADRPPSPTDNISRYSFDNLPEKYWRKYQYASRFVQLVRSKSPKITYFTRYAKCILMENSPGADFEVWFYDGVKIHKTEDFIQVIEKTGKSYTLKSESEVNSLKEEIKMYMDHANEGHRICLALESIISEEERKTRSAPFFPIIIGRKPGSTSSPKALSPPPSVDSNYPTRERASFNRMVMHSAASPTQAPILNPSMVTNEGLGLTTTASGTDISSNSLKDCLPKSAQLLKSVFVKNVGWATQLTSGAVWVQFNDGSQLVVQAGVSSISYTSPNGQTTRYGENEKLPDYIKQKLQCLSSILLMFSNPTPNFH

[6] = target: T3, Serine/threonine-protein kinase PLK4 (Homo sapiens) (UniProt O00444); assay: Inhibition of PLK4 (unknown origin) at 2 uM relative to control
T3 sequence (whole entry): T2 sequence (O00444 whole entry)

[7] = target: T2, Serine/threonine-protein kinase PLK4; assay: Inhibition of PLK4 (unknown origin)
[8] = target: T1, Serine/threonine-protein kinase PAK 4; assay: Inhibition of PAK4 (unknown origin) using S2 as substrate incubated for 60 mins in the presence of ATP by time-resolved HTRF assay
[9] = target: CYP2C9 (Homo sapiens, UniProt P11712); assay: Inhibition of CYP2C9 in human liver microsomes at 10 uM preincubated for 10 mins followed by addition of NADPH-regenerating system and measured after 15 mins by LC-MS/MS analysis relative to control; type: ADME, Microsome; conditions: time 25 min
[10] = target: CYP2D6 (Homo sapiens, UniProt P10635); assay: Inhibition of CYP2D6 in human liver microsomes at 10 uM preincubated for 10 mins followed by addition of NADPH-regenerating system and measured after 15 mins by LC-MS/MS analysis relative to control; type: ADME, Microsome; conditions: time 25 min
Chain of CYP2D6 (P10635 whole entry): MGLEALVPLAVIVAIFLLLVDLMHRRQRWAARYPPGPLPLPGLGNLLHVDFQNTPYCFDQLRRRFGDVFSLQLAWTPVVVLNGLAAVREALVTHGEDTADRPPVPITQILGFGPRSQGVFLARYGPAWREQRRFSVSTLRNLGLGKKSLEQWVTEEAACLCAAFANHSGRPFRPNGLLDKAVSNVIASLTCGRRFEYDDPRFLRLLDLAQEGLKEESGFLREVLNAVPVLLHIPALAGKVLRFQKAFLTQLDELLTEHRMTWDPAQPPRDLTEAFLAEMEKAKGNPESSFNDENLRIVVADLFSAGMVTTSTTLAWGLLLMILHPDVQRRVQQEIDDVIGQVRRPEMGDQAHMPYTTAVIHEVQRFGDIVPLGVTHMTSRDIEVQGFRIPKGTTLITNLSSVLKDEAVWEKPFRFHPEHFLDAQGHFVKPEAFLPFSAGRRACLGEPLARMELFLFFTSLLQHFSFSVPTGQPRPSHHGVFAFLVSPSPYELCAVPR

T1 sequence (O96013 whole entry): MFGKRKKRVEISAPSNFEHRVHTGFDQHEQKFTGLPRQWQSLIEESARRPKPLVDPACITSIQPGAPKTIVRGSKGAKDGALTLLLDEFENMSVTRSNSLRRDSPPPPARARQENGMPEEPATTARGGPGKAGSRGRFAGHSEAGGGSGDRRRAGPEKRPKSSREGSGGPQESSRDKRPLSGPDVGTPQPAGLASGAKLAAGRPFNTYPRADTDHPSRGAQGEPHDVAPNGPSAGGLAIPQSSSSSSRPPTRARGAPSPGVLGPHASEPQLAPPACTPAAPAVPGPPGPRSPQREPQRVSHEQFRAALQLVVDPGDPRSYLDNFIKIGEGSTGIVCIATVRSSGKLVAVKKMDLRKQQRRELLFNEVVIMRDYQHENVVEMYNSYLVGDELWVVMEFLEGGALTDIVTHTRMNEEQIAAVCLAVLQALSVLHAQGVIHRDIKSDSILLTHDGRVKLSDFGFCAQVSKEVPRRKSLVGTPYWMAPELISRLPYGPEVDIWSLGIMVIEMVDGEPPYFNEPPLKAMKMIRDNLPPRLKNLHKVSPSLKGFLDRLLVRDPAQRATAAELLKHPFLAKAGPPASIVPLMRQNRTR
Chain of CYP2C9 (P11712 whole entry): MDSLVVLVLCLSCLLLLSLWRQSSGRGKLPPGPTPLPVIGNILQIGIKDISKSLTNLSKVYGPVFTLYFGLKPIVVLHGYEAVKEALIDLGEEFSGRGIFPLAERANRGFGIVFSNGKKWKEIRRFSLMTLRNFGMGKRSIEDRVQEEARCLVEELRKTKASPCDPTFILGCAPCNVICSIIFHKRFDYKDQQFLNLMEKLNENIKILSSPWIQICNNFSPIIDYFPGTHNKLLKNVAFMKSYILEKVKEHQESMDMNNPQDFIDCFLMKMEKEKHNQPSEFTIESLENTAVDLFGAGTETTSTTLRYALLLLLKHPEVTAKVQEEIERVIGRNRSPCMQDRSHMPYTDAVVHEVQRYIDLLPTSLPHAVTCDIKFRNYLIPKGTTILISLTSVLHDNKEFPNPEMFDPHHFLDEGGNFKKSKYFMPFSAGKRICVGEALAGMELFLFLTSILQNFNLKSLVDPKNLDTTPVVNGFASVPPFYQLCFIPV

Row | Structure (SMILES) | IC50 [1] [nM] | IC50 [2] [nM] | IC50 [3] [nM] | IC50 [4] [nM] | IC50 [5] [nM] | also measured
1 | Cc1cc(Nc2nc(NCc3cccc(Cl)c3)nc3[nH]ncc23)n[nH]1 | 5620 | 611 | 12800 | 6860 | 5.5 | –
2 | Cc1cc(Nc2nc(NCc3ccc(F)cc3F)nc3c2cnn3C2CCNCC2)n[nH]1 | 410 | 231 | 2970 | 1080 | 0.7 | –
3 | Cc1cc(Nc2nc(NCc3ccc(Cl)cc3)nc3c2cnn3CC(C)(C)O)n[nH]1 | 1940 | – | 16200 | 3980 | 3.8 | –
4 | Cc1cc(Nc2nc(Nc3ccccc3)nc3[nH]ncc23)n[nH]1 | – | 5900 | – | – | 206 | –
5 | Cc1cc(Nc2nc(N3CCNCC3)nc3[nH]ncc23)n[nH]1 | – | 1500 | – | – | 533 | –
6 | Cc1cc(Nc2nc(Cl)nc3[nH]ncc23)n[nH]1 | – | 5940 | – | – | 489 | –
7 | Fc1ccc(CNc2nc(Nc3cc(-c4ccccc4)[nH]n3)c3cnn(C4CCOCC4)c3n2)c(F)c1 | – | – | – | – | 969 | –
8 | Cc1cc(Nc2nc(NCc3ccc(Cl)cc3)nc3[nH]ncc23)n[nH]1 | 860 | 515 | 11700 | 7500 | 0.3 | –
9 | Cc1cc(Nc2nc(NCc3ccc(F)cc3F)nc3c2cnn3C2CCCCC2)n[nH]1 | 810 | – | 6230 | 2960 | 7.9 | –
10 | Cc1cc(Nc2nc(NCc3ccc(Cl)cc3)nc3c2cnn3C(C)C)n[nH]1 | 2040 | – | 13000 | 4860 | 3.7 | –
11 | Cc1cc(Nc2nc(NCc3ccc(F)cc3F)nc3c2cnn3CC(C)(C)O)n[nH]1 | 160 | 655 | 19400 | 2510 | 2.7 | –
12 | Cc1cc(Nc2nc(NCc3ccc(Cl)cc3)nc3c2cnn3C)n[nH]1 | – | – | – | – | 20.2 | –
13 | Cc1cc(Nc2cc(Cc3ccccc3)nc(NC3CCNCC3)n2)n[nH]1 | – | – | – | – | – | inhibition [6]: 58.4%; IC50 [7]: 351 nM; IC50 [8]: 5.9 nM
14 | Cc1cc(Nc2nc(NCc3ccc(Cl)cc3)nc3c2cnn3C2CCCCC2)n[nH]1 | – | – | – | – | 47.9 | –
15 | Fc1ccc(-c2cc(Nc3nc(NCc4ccc(F)cc4F)nc4c3cnn4C3CCOCC3)n[nH]2)cc1 | – | – | – | – | 1290 | –
16 | Cc1cc(Nc2nc(NCc3ccc(Cl)cc3)nc3c2cnn3C2CCNCC2)n[nH]1 | 790 | – | 2350 | 3220 | 7 | –
17 | COc1c(Nc2cc(C)[nH]n2)nc(Sc2ccc(S(=O)(=O)Cc3cccc([N+](=O)[O-])c3F)cc2F)nc1N1CCOCC1 | 2270 | – | 10500 | 8690 | – | –
18 | Fc1ccc(CNc2nc(Nc3n[nH]c4ccccc34)c3cnn(C4CCOCC4)c3n2)c(F)c1 | – | – | – | – | 536 | –
19 | Cc1cc(Nc2nc(NCc3c(F)cc(F)cc3F)nc3[nH]ncc23)n[nH]1 | – | – | – | – | 78.5 | –
20 | Cc1cc(Nc2nc(NCc3ccc(Cl)cc3)nc3c2cnn3C2CCOCC2)n[nH]1 | 1550 | – | 18300 | 9420 | 4 | –
21 | Cc1cc(Nc2nc(NCc3cccc(F)c3)nc3[nH]ncc23)n[nH]1 | – | 458 | – | – | 14.6 | –
22 | Cc1cc(Nc2nc(NCc3ccccc3)nc3[nH]ncc23)n[nH]1 | – | 1960 | – | – | 21.2 | –
23 | Fc1ccc(CNc2nc(Nc3n[nH]c4ccc(Cl)cc34)c3cnn(C4CCOCC4)c3n2)c(F)c1 | – | – | – | – | 3180 | –

Row | Structure (SMILES) | IC50 [1] [nM] | IC50 [2] [nM] | IC50 [3] [nM] | IC50 [4] [nM] | IC50 [5] [nM] | also measured
24 | Cc1cc(Nc2nc(NCc3ccccc3Cl)nc3[nH]ncc23)n[nH]1 | 4130 | 668 | 7160 | 4210 | 0.7 | –
25 | Cc1cnc(Nc2nc(NCc3ccc(F)cc3F)nc3c2cnn3C2CCOCC2)s1 | – | – | – | – | 20.7 | –
26 | Nc1ccc(S(=O)(=O)Nc2ccnn2-c2ccccc2)cc1 [SULFAPHENAZOLE] | – | – | – | – | – | inhibition at 0.25 h, 10 µM [9]: 81.4%
27 | Cc1cc(Nc2nc(NCc3ccc(Cl)cc3)nc3c2cnn3-c2ccc(F)cc2)n[nH]1 | – | – | – | – | 241 | –
28 | COc1ccc(CNc2nc(Nc3cc(C)[nH]n3)c3cn[nH]c3n2)cc1 | 3320 | – | 8230 | 1320 | 6.5 | –
29 | Cc1cc(Nc2nc(NCc3ccc(F)c(F)c3)nc3[nH]ncc23)n[nH]1 | – | – | – | – | 22.2 | –
30 | Cc1cc(Nc2nc(NCc3ccc(C#N)cc3)nc3[nH]ncc23)n[nH]1 | 6060 | – | 12100 | 1360 | 10.5 | –
31 | Fc1ccc(CNc2nc(Nc3cc(C4CC4)[nH]n3)c3cnn(C4CCOCC4)c3n2)c(F)c1 | 2480 | – | 7240 | 2560 | 1.8 | –
32 | Cc1cc(Nc2nc(NC3CCNCC3)nc3[nH]ncc23)n[nH]1 | – | 273 | – | – | 484 | –
33 | C=C[C@H]1C[N@@]2CC[C@H]1C[C@@H]2[C@@H](O)c1ccnc2ccc(OC)cc12 [QUINIDINE] | – | – | – | – | – | inhibition at 0.25 h, 10 µM [10]: 95.9%
34 | Cc1cc(Nc2nc(NCc3ccc(F)cc3)nc3[nH]ncc23)n[nH]1 | 970 | 395 | 8750 | 8410 | 0.8 | –
35 | Cc1cc(Nc2nc(NCc3ccc(Br)cc3)nc3[nH]ncc23)n[nH]1 | 5340 | 1320 | 4110 | 1860 | 5.6 | –
36 | CCc1cc(Nc2nc(NCc3ccc(F)cc3F)nc3c2cnn3C2CCOCC2)n[nH]1 | 1790 | – | 3060 | 2790 | 0.7 | –
37 | Cc1cc(Nc2nc(NCc3ccc(F)cc3F)nc3c2cnn3C(C)C)n[nH]1 | 4320 | – | 17300 | 5350 | 1.1 | –
38 | Cc1cc(Nc2nc(NCc3cccc(Br)c3)nc3[nH]ncc23)n[nH]1 | – | 4340 | – | – | 23.3 | –
39 | CC(C)(C)c1cc(Nc2nc(NCc3ccc(F)cc3F)nc3c2cnn3C2CCOCC2)n[nH]1 | – | – | – | – | 726 | –
40 | Cc1cc(Nc2nc(NCc3ccc(F)cc3F)nc3c2cnn3C)n[nH]1 | – | – | – | – | 17.5 | –
41 | Cc1cc(Nc2nc(NCc3ccccc3F)nc3[nH]ncc23)n[nH]1 | 2310 | 389 | 13200 | 9850 | 1 | –
42 | Cc1cc(Nc2nc(NC3CCNC3)nc3[nH]ncc23)n[nH]1 (configuration not stated) | – | 1050 | – | – | 454 | –
43 | Cc1cc(Nc2nc(NCc3ccccc3Br)nc3[nH]ncc23)n[nH]1 | 14100 | 1090 | 10100 | 3990 | 8.7 | –
44 | Cc1cc(Nc2nc(NCc3ccc(Cl)cc3)nc3c2cnn3CC(F)(F)F)n[nH]1 | – | – | – | – | 118 | –
45 | Cc1cc(Nc2nc(NCc3ccc(F)cc3F)nc3[nH]ncc23)n[nH]1 | 670 | 96.1 | 3220 | 2670 | 0.1 | –
